According to US20240174690A1, “ANNULATED 2-AMINO-3-CYANO THIOPHENES AND DERIVATIVES FOR THE TREATMENT OF CANCER” (BOEHRINGER INGELHEIM INTERNATIONAL GMBH, priority 2021, published 2024):
pIC50: −log10 of the molar value.

Columns and labels:
[1] = test system: A375 cells; experiment: A375 CTG proliferation assay (120 h) (melanoma, wt, B-Raf mutant, negative control); assay type: cell-based; settings: Homo sapiens, A-375, CTG 120 h
Experimental: A375 CTG Proliferation Assay (120 h) (Melanoma, Wt, B-Raf Mutant, Negative Control)
A375 cells (ATCC CRL-1619) are dispensed into 384-well plates, flat and clear bottom (Greiner, PNr. 781091) at a density of 300 cells per well in 60 μL DMEM (Sigma 06429)+10% Fetal Calf Serum (HyClone, PNr.: SH30084.03) and incubated at 37° C. in a CO2 incubator overnight. The next day, compounds (10 mM stock in DMSO) are added at logarithmic dose series using the HP Digital Dispenser D300 (Tecan), including DMSO controls. Plates are incubated for 120 h, and cell viability is measured using CellTiter-Glo luminescent cell viability reagent (Promega product code G7570). Viability (stated as percent of control) is defined as relative luminescence units RLU of each well divided by the RLU of cells in DMSO controls. IC50 values are determined from viability measurements by non-linear regression using a four-parameter model.

[2] = test system: Caco-2 cell monolayers; experiment: Caco-2 assay (permeability PappAB, PappBA, efflux ratio); assay type: in vitro ADME; settings: 10 μM test compound, pH 7.4
Outline: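 Bidirectional permeability (apical-to-basolateral and reverse) through polarized Caco-2 monolayers, BSA 0.25% on each side, 37 °C. Donor and receiver sampled at 0-90 min after 25-30 min preincubation, analysed by HPLC/MS/MS. Apparent permeabilities derived from transfer rate normalised to area and t=0 donor concentration; ER taken as PappBA over PappAB.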

Row | pIC50 [1] | Structure (SMILES) | Caco PappAB ([2]; apical to basolateral) [×10⁻⁶ cm/s] | Caco ER ([2]; efflux ratio PappBA/PappAB)
1 | < 5.52 | C[C@H](Oc1cc(-n2ccc(C(N)=O)n2)nc(-c2noc3c2CCC[C@@]32CCCc3sc(N)c(C#N)c32)n1)[C@@H]1CCCN1C [II-21] |  | 
2 | < 5.52 | C[C@H](Oc1cc(-c2ccn(C)n2)nc(-c2noc3c2CCC[C@@]32CCCc3sc(N)c(C#N)c32)n1)[C@@H]1C[C@@H](F)CN1C [II-27] |  | 
3 | < 5.52 | CNC(=O)c1ccn(-c2cc(O[C@@H](C)[C@@H]3CCCN3C)nc(-c3noc4c3CCC[C@@]43CCCc4sc(N)c(C#N)c43)n2)n1 [II-20] |  | 
4 |  | C[C@H](Oc1cc(-c2ccn(C)n2)nc(-c2onc3c2CCC[C@@]32CCCc3sc(N)c(C#N)c32)n1)[C@@H]1CCCN1C [I-21] | 5.1 | 6.8
5 | < 5.52 | C[C@H](Oc1cc([C@@H]2CCOC2)nc(-c2onc3c2CCC[C@@]32CCCc3sc(N)c(C#N)c32)n1)[C@@H]1CCCN1C [I-22] |  | 
6 | 5.95 | C[C@H](Oc1cc(-n2ccc(C(=O)N3CCCC3)n2)nc(-c2noc3c2CCC[C@@]32CCCc3sc(N)c(C#N)c32)n1)[C@@H]1CCCN1C [II-19] |  | 
